Measurements reported in US11851440B2, “Modulators of eukaryotic initiation factor 2B, compositions and methods” (Denali Therapeutics Inc., priority 2017, dated 2023).

system: ISR pathway (ATF4 translation); assay: ATF4 Nano Luciferase reporter integrated stress response (ISR) assay in H4 ATF4-NLuc cells; details: Homo sapiens, H4 ATF4-NLuc (clone 17) cells; compound 30 minutes, then 50 um sodium arsenite for 6 hours; luminescence readout

IC50 [nM] | Structure (SMILES)
35.5 | O=C(COc1ccc(C(F)(F)F)nc1)NC12CC(n3cnc(C4CC(OC(F)(F)F)C4)c3)(C1)C2 (centres unmarked) [Example 151]
2.6 | O=C(CO[C@H]1C[C@@H](OC(F)(F)F)C1)NC12CC(n3cnc(-c4ccc(C(F)(F)F)cc4F)c3)(C1)C2 [Example 148]
14.9 | O=C(COc1ccc(C(F)(F)F)cc1)NC12CC(c3nnc([C@H]4C[C@@H](OC(F)(F)F)C4)o3)(C1)C2 [Example 162, N-[1-[5-[3-cis-(trifluoromethoxy)cyclobutyl]-1,3,4-oxadiazol-2-yl]-3-bicyclo[1.1.1]pentanyl]-2-[4-(trifluoromethyl)phenoxy]acetamide]
17.1 | O=C(COc1ccc(Cl)c(F)c1)NC12CC(c3nnc(C4CN(CC(F)(F)F)C4)o3)(C1)C2 [Example 15, 2-(4-chloro-3-fluoro-phenoxy)-N-[1-[5-[1-(2,2,2-trifluoroethyl)azetidin-3-yl]-1,3,4-oxadiazol-2-yl]-3-bicyclo[1.1.1]pentanyl]acetamide]
43.9 | O=C(NC12CC(c3nnc([C@H]4C[C@@H](OC(F)(F)F)C4)o3)(C1)C2)c1ccc2cc(Cl)cnc2c1 [Example 167, 3-chloro-N-[1-[5-[3-cis-(trifluoromethoxy)cyclobutyl]-1,3,4-oxadiazol-2-yl]-3-bicyclo[1.1.1]pentanyl]quinoline-7-carboxamide]

same assay, conditions: Homo sapiens, read-out: Activity (IC50), H4 ATF4-NLuc (clone 17) cells; compound 30 minutes, then 50 um sodium arsenite for 6 hours; luminescence readout

IC50 [nM] | Structure (SMILES)
< 1000 | O=C(COc1ccc(Cl)c(F)c1)NC12CC(c3nnc(C4CN(CC(F)F)C4)o3)(C1)C2 [Example 130, 2-(4-chloro-3-fluoro-phenoxy)-N-[3-[5-[1-(2,2-difluoroethyl)azetidin-3-yl]-1,3,4-oxadiazol-2-yl]-1-bicyclo[1.1.1]pentanyl]acetamide]
< 1000 | CC(CC(F)F)c1nnc(C23CC(NC(=O)COc4ccc(Cl)c(F)c4)(C2)C3)o1 (centres unmarked) [Example 7, 2-(4-chloro-3-fluoro-phenoxy)-N-[1-[5-(3,3-difluoro-1-methyl-propyl)-1,3,4-oxadiazol-2-yl]-3-bicyclo[1.1.1]pentanyl]acetamide]
< 1000 | O=C(COc1ccc(C(F)(F)F)nc1)NC12CC(n3cnc(C4CC(OC(F)(F)F)C4)c3)(C1)C2 (centres unmarked) [Example 151]
< 1000 | O=C(CO[C@H]1C[C@@H](OC(F)(F)F)C1)NC12CC(n3cnc(-c4ccc(C(F)(F)F)cc4F)c3)(C1)C2 [Example 148]
< 1000 | O=C(COc1ccc(Cl)c(F)c1)NC12CC(c3nnc([C@H]4C[C@@H]4C(F)F)o3)(C1)C2 (single isomer, unassigned) [Example 84, 2-(4-chloro-3-fluoro-phenoxy)-N-[3-[5-[2-trans-(difluoromethyl)cyclopropyl]-1,3,4-oxadiazol-2-yl]-1-bicyclo[1.1.1]pentanyl]acetamide]
< 1000 | CC(COC(F)(F)F)OCC(=O)NC12CC(n3cnc(-c4ccc(Cl)c(F)c4)c3)(C1)C2 (centres unmarked) [Example 262]
< 1000 | O=C(CO[C@H]1C[C@@H](OC(F)(F)F)C1)NC12CC(c3nnc([C@H]4C[C@@H](OC(F)(F)F)C4)o3)(C1)C2 [Example 50]
1000 to 10000 | O=C(CCc1ccc(Cl)cn1)NC12CC(c3nnc([C@H]4C[C@@H](OC(F)(F)F)C4)o3)(C1)C2 [Example 56]
1000 to 10000 | O=C(COCc1cncc(Cl)c1)NC12CC(c3nnc([C@H]4C[C@@H](OC(F)(F)F)C4)o3)(C1)C2 [Example 97, 2-[(5-chloro-3-pyridyl)methoxy]-N-[3-[5-[3-cis-(trifluoromethoxy)cyclobutyl]-1,3,4-oxadiazol-2-yl]-1-bicyclo[1.1.1]pentanyl]acetamide]
< 1000 | O=C(COc1ccc(C(F)(F)F)cc1)NC12CC(c3nnc([C@H]4C[C@@H](OC(F)(F)F)C4)o3)(C1)C2 [Example 162, N-[1-[5-[3-cis-(trifluoromethoxy)cyclobutyl]-1,3,4-oxadiazol-2-yl]-3-bicyclo[1.1.1]pentanyl]-2-[4-(trifluoromethyl)phenoxy]acetamide]
< 1000 | CC1C(c2nnc(C34CC(NC(=O)COc5ccc(Cl)c(F)c5)(C3)C4)o2)CN1CC(F)(F)F (centres unmarked) [Example 121, 2-(4-chloro-3-fluoro-phenoxy)-N-[3-[5-[2-methyl-1-(2,2,2-trifluoroethyl)azetidin-3-yl]-1,3,4-oxadiazol-2-yl]-1-bicyclo[1.1.1]pentanyl]acetamide]
1000 to 10000 | O=C(COc1ccc(Cl)cc1)NC12CC(c3nnc(C4CCOC4)o3)(C1)C2 (centres unmarked) [Example 1, 2-(4-Chlorophenoxy)-N-[3-(5-tetrahydrofuran-3-yl-1,3,4-oxadiazol-2-yl)-1-bicyclo[1.1.1]pentanyl]acetamide]
< 1000 | O=C(CO[C@H]1C[C@@H](n2nccn2)C1)NC12CC(n3cnc(-c4ccc(Cl)c(F)c4)c3)(C1)C2 [Example 230]
1000 to 10000 | O=C(COCCOC(F)(F)F)NC12CC(c3nnc([C@H]4C[C@@H](OC(F)(F)F)C4)o3)(C1)C2 [Example 94, N-[3-[5-[3-cis-(trifluoromethoxy)cyclobutyl]-1,3,4-oxadiazol-2-yl]-1-bicyclo[1.1.1]pentanyl]-2-[2-(trifluoromethoxy)ethoxy]acetamide]
< 1000 | O=C(CO[C@H]1C[C@@H](OC(F)(F)F)C1)NC12CC(n3cnc(-c4ccc(F)c(F)c4)c3)(C1)C2 [Example 138]
< 1000 | CCO[C@H]1C[C@@H](OCC(=O)NC23CC(n4cnc(-c5ccc(Cl)c(F)c5)c4)(C2)C3)C1 [Example 240]
> 10000 | O=C(NC12CC(c3nnc([C@H]4C[C@@H](OC(F)(F)F)C4)o3)(C1)C2)C1=NO[C@@H](c2ccccc2)C1 [Example 99, cis-(R)-5-phenyl-N-(3-(5-(3-(trifluoromethoxy)cyclobutyl)-1,3,4-oxadiazol-2-yl)bicyclo[1.1.1]pentan-1-yl)-4,5-dihydroisoxazole-3-carboxamide]

IC50 [nM] | Structure (SMILES)
< 1000 | O=C(NC12CC(c3nnc([C@H]4C[C@@H](OC(F)(F)F)C4)o3)(C1)C2)c1cn2ncc(Cl)cc2n1 [Example 177]
< 1000 | O=C(COc1ccc(Cl)c(F)c1)NC12CC(c3cc(C4CCC4)no3)(C1)C2 [Example 26, 2-(4-Chloro-3-fluorophenoxy)-N-(3-(3-cyclobutylisoxazol-5-yl)bicyclo[1.1.1]pentan-1-yl)acetamide]
1000 to 10000 | O=C(CO[C@H]1C[C@@H](n2nccn2)C1)NC12CC(c3nnc([C@H]4C[C@@H](OC(F)(F)F)C4)o3)(C1)C2 [Example 172]
< 1000 | O=C(COc1ccc(Cl)c(F)c1)NC12CC(n3cnc(CC4CCC4)c3)(C1)C2 [Example 48]
< 1000 | O=C(COc1ccc(Cl)c(F)c1)NC12CC(c3nnc(C4CCC4)o3)(C1)C2 [Example 25, 2-(4-chloro-3-fluoro-phenoxy)-N-[1-(5-cyclobutyl-1,3,4-oxadiazol-2-yl)-3-bicyclo[1.1.1]pentanyl]acetamide]
< 1000 | O=C(NC12CC(n3cnc(-c4ccc(Cl)c(F)c4)c3)(C1)C2)C1CCN(CC(F)(F)F)CC1 [Example 155]
< 1000 | O=C(COc1ccc(Cl)c(F)c1)NC12CC(N3CC(C4CN(CC(F)(F)F)C4)OC3=O)(C1)C2 (centres unmarked) [Example 224]
< 1000 | O=C(COc1ccc(Cl)c(F)c1)NC12CC(c3nnc(C4CN(CC(F)(F)F)C4)o3)(C1)C2 [Example 15, 2-(4-chloro-3-fluoro-phenoxy)-N-[1-[5-[1-(2,2,2-trifluoroethyl)azetidin-3-yl]-1,3,4-oxadiazol-2-yl]-3-bicyclo[1.1.1]pentanyl]acetamide]
< 1000 | O=C(COc1ccc(Cl)c(F)c1)NC12CC(c3cn(C4CCC4)nn3)(C1)C2 (single isomer, unassigned) [Example 20, 2-(4-chloro-3-fluoro-phenoxy)-N-[1-(1-cyclobutyltriazol-4-yl)-3-bicyclo[1.1.1]pentanyl]acetamide]
< 1000 | O=C(COCCn1cc(F)cn1)NC12CC(n3cnc(-c4ccc(Cl)cc4)c3)(C1)C2 [Example 145]
< 1000 | O=C(COc1ccc(C2CC2)cc1)NC12CC(c3nnc([C@H]4C[C@@H](OC(F)(F)F)C4)o3)(C1)C2 [Example 120, 2-(4-cyclopropylphenoxy)-N-[3-[5-[3-cis-(trifluoromethoxy)cyclobutyl]-1,3,4-oxadiazol-2-yl]-1-bicyclo[1.1.1]pentanyl]acetamide]
< 1000 | O=C(COC1CCC1)NC12CC(c3nnc(COc4ccc(Cl)c(F)c4)o3)(C1)C2 [Example 46]
< 1000 | O=C(NC12CC(c3nnc([C@H]4C[C@@H](OC(F)(F)F)C4)o3)(C1)C2)c1ccc2cc(Cl)cnc2c1 [Example 167, 3-chloro-N-[1-[5-[3-cis-(trifluoromethoxy)cyclobutyl]-1,3,4-oxadiazol-2-yl]-3-bicyclo[1.1.1]pentanyl]quinoline-7-carboxamide]
< 1000 | O=C(COc1ccc(C(F)(F)F)nc1)NC12CC(c3nnc([C@H]4C[C@@H](OC(F)(F)F)C4)o3)(C1)C2 [Example 174]
< 1000 | CC(c1nnc(C23CC(NC(=O)COc4ccc(Cl)c(F)c4)(C2)C3)o1)C1CC1 (centres unmarked) [Example 8, 2-(4-chloro-3-fluoro-phenoxy)-N-[1-[5-(1-cyclopropylethyl)-1,3,4-oxadiazol-2-yl]-3-bicyclo[1.1.1]pentanyl]acetamide]
< 1000 | O=C(COc1ccc(Cl)c(F)c1)NC12CC(c3cnn([C@H]4C[C@@H](OC(F)(F)F)C4)n3)(C1)C2 [Example 79, 2-(4-chloro-3-fluoro-phenoxy)-N-[3-[2-[3-cis-(trifluoromethoxy)cyclobutyl]triazol-4-yl]-1-bicyclo[1.1.1]pentanyl]acetamide]
< 1000 | O=C(CO[C@H]1C[C@@H](OC(F)(F)F)C1)NC12CC(n3cnc(C4=NCC(C(F)(F)F)O4)c3)(C1)C2 (some centres unmarked) [Example 267]

Structure (SMILES) | IC50 [nM]
O=C(CO[C@H]1C[C@@H](OC(F)(F)F)C1)NC12CC(c3nnc([C@H]4C[C@@H](COC(F)(F)F)C4)o3)(C1)C2 [Example 106, 2-[3-cis-(trifluoromethoxy)cyclobutoxy]-N-[3-[5-[3-cis-(trifluoromethoxymethyl)cyclobutyl]-1,3,4-oxadiazol-2-yl]-1-bicyclo[1.1.1]pentanyl]acetamide] | < 1000
O=C(CO[C@H]1C[C@@H](OC(F)(F)F)C1)NC12CC(n3cnc([C@H]4C[C@@H](OC(F)(F)F)C4)c3)(C1)C2 [Example 63, 2-[3-cis-(trifluoromethoxy)cyclobutoxy]-N-[3-[4-[3-cis-(trifluoromethoxy)cyclobutyl]imidazol-1-yl]-1-bicyclo[1.1.1]pentanyl]acetamide] | < 1000
O=C(CO[C@H]1C[C@@H](COC(F)(F)F)C1)NC12CC(c3nnc([C@H]4C[C@@H](OC(F)(F)F)C4)o3)(C1)C2 [Example 89, N-[3-[5-[3-cis-(trifluoromethoxy)cyclobutyl]-1,3,4-oxadiazol-2-yl]-1-bicyclo[1.1.1]pentanyl]-2-[3-cis-(trifluoromethoxymethyl)cyclobutoxy]acetamide] | < 1000

same assay, conditions: read-out: Activity (IC50); H4 ATF4-NLuc (clone 17) cells; compound 30 minutes, then 50 um sodium arsenite for 6 hours; luminescence readout

IC50 [nM] | Structure (SMILES)
> 10000 | O=C(COc1ccc(Cl)c(F)c1)NC12CC(C3CN(C4CCC4)C(=O)O3)(C1)C2 (centres unmarked) [Example 219]
1000 to 10000 | O=C(COc1ccc(Cl)c(F)c1)NC12CC(C3CN(C4CCC4)C(=O)O3)(C1)C2 (centres unmarked) [Example 59]
